Measurements as given in ChEMBL document CHEMBL1201861, “Genomics of Drug Sensitity in Cancer screening data, Wellcome Trust Sanger Institute”.

Tested on: COLO-800;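 also: growth inhibition of COLO-800 cells, read out with a cell viability assay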
Assay: cells
Assay type: functional, cell-based, Homo sapiens
Settings: Homo sapiens, COLO-800
Description: SANGER: Inhibition of human COLO-800 cell growth in a cell viability assay.

Structure (SMILES)	IC50 [nM]
OCCCNc1cc(-c2ccnc(Nc3cccc(Cl)c3)n2)ccn1	> 256

Tested on: COLO-829
Assay: cells
Assay type: functional, cell-based, Homo sapiens
Settings: Homo sapiens, COLO-829
Description: SANGER: Inhibition of human COLO-829 cell growth in a cell viability assay.

Structure (SMILES)	IC50 [nM]
OCCCNc1cc(-c2ccnc(Nc3cccc(Cl)c3)n2)ccn1	> 256

Tested on: CP66-MEL;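 also: growth inhibition of CP66-MEL cells determined in a cell viability assay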
Assay: cells
Assay type: functional, cell-based, Homo sapiens
Settings: Homo sapiens, CP66-MEL
Description: SANGER: Inhibition of human CP66-MEL cell growth in a cell viability assay.

Structure (SMILES)	IC50 [nM]
OCCCNc1cc(-c2ccnc(Nc3cccc(Cl)c3)n2)ccn1	> 256

Tested on: CTV-1;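 also: growth inhibition of the cell line, read out with a cell viability assay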
Assay: cells
Assay type: functional, cell-based, Homo sapiens
Settings: Homo sapiens, CTV-1
Description: SANGER: Inhibition of human CTV-1 cell growth in a cell viability assay.

Structure (SMILES)	IC50 [nM]
OCCCNc1cc(-c2ccnc(Nc3cccc(Cl)c3)n2)ccn1	66

Tested on: DSH1;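 also: growth inhibition of human DSH1 cells, measured with a cell viability readout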
Assay: cells
Assay type: functional, cell-based, Homo sapiens
Settings: Homo sapiens, DSH1
Description: SANGER: Inhibition of human DSH1 cell growth in a cell viability assay.

Structure (SMILES)	IC50 [nM]
OCCCNc1cc(-c2ccnc(Nc3cccc(Cl)c3)n2)ccn1	> 256

Tested on: EC-GI-10
Assay: cells
Assay type: functional, cell-based, Homo sapiens
Settings: Homo sapiens, EC-GI-10
Description: SANGER: Inhibition of human EC-GI-10 cell growth in a cell viability assay.

Structure (SMILES)	IC50 [nM]
OCCCNc1cc(-c2ccnc(Nc3cccc(Cl)c3)n2)ccn1	> 256

Tested on: ES1;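 also: growth inhibition of ES1 cells, read out with a cell viability assay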
Assay: cells
Assay type: functional, cell-based, Homo sapiens
Settings: Homo sapiens, ES1
Description: SANGER: Inhibition of human ES1 cell growth in a cell viability assay.

Structure (SMILES)	IC50 [nM]
OCCCNc1cc(-c2ccnc(Nc3cccc(Cl)c3)n2)ccn1	> 256

Tested on: ES7;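 also: growth inhibition of cultured human ES7 cells, read out as cell viability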
Assay: cells
Assay type: functional, cell-based, Homo sapiens
Settings: Homo sapiens, ES7
Description: SANGER: Inhibition of human ES7 cell growth in a cell viability assay.

Structure (SMILES)	IC50 [nM]
OCCCNc1cc(-c2ccnc(Nc3cccc(Cl)c3)n2)ccn1	> 256

Tested on: EW-18;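 also: growth inhibition of EW-18 cells, read out by a cell viability assay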
Assay: cells
Assay type: functional, cell-based, Homo sapiens
Settings: Homo sapiens, EW-18
Description: SANGER: Inhibition of human EW-18 cell growth in a cell viability assay.

Structure (SMILES)	IC50 [nM]
OCCCNc1cc(-c2ccnc(Nc3cccc(Cl)c3)n2)ccn1	> 256

Tested on: EOL1;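 also: growth inhibition of EoL-1 cells, read out by a cell viability assay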
Assay: cells
Assay type: functional, cell-based, Homo sapiens
Settings: Homo sapiens, EOL1
Description: SANGER: Inhibition of human EoL-1-cell cell growth in a cell viability assay.

Structure (SMILES)	IC50 [nM]
OCCCNc1cc(-c2ccnc(Nc3cccc(Cl)c3)n2)ccn1	> 256

Tested on: GB-1;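 also: growth of GB-1 cells judged by a viability assay, IC50 marks the concentration inhibiting growth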
Assay: cells
Assay type: functional, cell-based, Homo sapiens
Settings: Homo sapiens, GB-1
Description: SANGER: Inhibition of human GB-1 cell growth in a cell viability assay.

Structure (SMILES)	IC50 [nM]
OCCCNc1cc(-c2ccnc(Nc3cccc(Cl)c3)n2)ccn1	38

Tested on: GT3TKB;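 also: growth inhibition of the cell line, read out with a cell viability assay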
Assay: cells
Assay type: functional, cell-based, Homo sapiens
Settings: Homo sapiens, GT3TKB
Description: SANGER: Inhibition of human GT3TKB cell growth in a cell viability assay.

Structure (SMILES)	IC50 [nM]
OCCCNc1cc(-c2ccnc(Nc3cccc(Cl)c3)n2)ccn1	59

Tested on: HDLM-2;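 also: cell viability assay measuring suppression of HDLM-2 proliferation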
Assay: cells
Assay type: functional, cell-based, Homo sapiens
Settings: Homo sapiens, HDLM-2
Description: SANGER: Inhibition of human HDLM-2 cell growth in a cell viability assay.

Structure (SMILES)	IC50 [nM]
OCCCNc1cc(-c2ccnc(Nc3cccc(Cl)c3)n2)ccn1	> 256

Tested on: KLE;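 also: growth inhibition of human KLE cells, read out with a cell viability assay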
Assay: cells
Assay type: functional, cell-based, Homo sapiens
Settings: Homo sapiens, KLE
Description: SANGER: Inhibition of human KLE cell growth in a cell viability assay.

Structure (SMILES)	IC50 [nM]
OCCCNc1cc(-c2ccnc(Nc3cccc(Cl)c3)n2)ccn1	55.6

Tested on: KMOE-2;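 also: growth inhibition of human KMOE-2 cells, read out with a cell viability assay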
Assay: cells
Assay type: functional, cell-based, Homo sapiens
Settings: Homo sapiens, KMOE-2
Description: SANGER: Inhibition of human KMOE-2 cell growth in a cell viability assay.

Structure (SMILES)	IC50 [nM]
OCCCNc1cc(-c2ccnc(Nc3cccc(Cl)c3)n2)ccn1	> 256

Tested on: KNS-81-FD;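 also: growth inhibition of KNS-81-FD cells, read out with a cell viability assay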
Assay: cells
Assay type: functional, cell-based, Homo sapiens
Settings: Homo sapiens, KNS-81-FD
Description: SANGER: Inhibition of human KNS-81-FD cell growth in a cell viability assay.

Structure (SMILES)	IC50 [nM]
OCCCNc1cc(-c2ccnc(Nc3cccc(Cl)c3)n2)ccn1	> 256

Tested on: LAN-6;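 also: growth inhibition of LAN-6 cells, determined with a cell viability assay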
Assay: cells
Assay type: functional, cell-based, Homo sapiens
Settings: Homo sapiens, LAN-6
Description: SANGER: Inhibition of human LAN-6 cell growth in a cell viability assay.

Structure (SMILES)	IC50 [nM]
OCCCNc1cc(-c2ccnc(Nc3cccc(Cl)c3)n2)ccn1	149

Tested on: LB1047-RCC;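 also: inhibition of cell growth, determined with a cell viability assay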
Assay: cells
Assay type: functional, cell-based, Homo sapiens
Settings: Homo sapiens, LB1047-RCC
Description: SANGER: Inhibition of human LB1047-RCC cell growth in a cell viability assay.

Structure (SMILES)	IC50 [nM]
OCCCNc1cc(-c2ccnc(Nc3cccc(Cl)c3)n2)ccn1	28.4

Tested on: LS-123
Assay: cells
Assay type: functional, cell-based, Homo sapiens
Settings: Homo sapiens, LS-123
Description: SANGER: Inhibition of human LS-123 cell growth in a cell viability assay.

Structure (SMILES)	IC50 [nM]
OCCCNc1cc(-c2ccnc(Nc3cccc(Cl)c3)n2)ccn1	93

Tested on: LXF-289 cell line
Assay: cells
Assay type: functional, cell-based, Homo sapiens
Settings: Homo sapiens, LXF-289
Description: SANGER: Inhibition of human LXF-289 cell growth in a cell viability assay.

Structure (SMILES)	IC50 [nM]
OCCCNc1cc(-c2ccnc(Nc3cccc(Cl)c3)n2)ccn1	164

Tested on: MHH-NB-11;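 also: growth inhibition of human MHH-NB-11 cells, read out by a cell viability assay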
Assay: cells
Assay type: functional, cell-based, Homo sapiens
Settings: Homo sapiens, MHH-NB-11
Description: SANGER: Inhibition of human MHH-NB-11 cell growth in a cell viability assay.

Structure (SMILES)	IC50 [nM]
OCCCNc1cc(-c2ccnc(Nc3cccc(Cl)c3)n2)ccn1	217

Tested on: MHH-PREB-1;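 also: cell viability assay measuring inhibition of proliferation of human MHH-PREB-1 cells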
Assay: cells
Assay type: functional, cell-based, Homo sapiens
Settings: Homo sapiens, MHH-PREB-1
Description: SANGER: Inhibition of human MHH-PREB-1 cell growth in a cell viability assay.

Structure (SMILES)	IC50 [nM]
OCCCNc1cc(-c2ccnc(Nc3cccc(Cl)c3)n2)ccn1	58.4

Tested on: ML-2;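 also: growth inhibition of ML-2 cells, measured with a cell viability readout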
Assay: cells
Assay type: functional, cell-based, Homo sapiens
Settings: Homo sapiens, ML-2
Description: SANGER: Inhibition of human ML-2 cell growth in a cell viability assay.

Structure (SMILES)	IC50 [nM]
OCCCNc1cc(-c2ccnc(Nc3cccc(Cl)c3)n2)ccn1	> 256

Tested on: NB69;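 also: growth inhibition of NB69 cells, determined by a cell viability assay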
Assay: cells
Assay type: functional, cell-based, Homo sapiens
Settings: Homo sapiens, NB69
Description: SANGER: Inhibition of human NB69 cell growth in a cell viability assay.

Structure (SMILES)	IC50 [nM]
OCCCNc1cc(-c2ccnc(Nc3cccc(Cl)c3)n2)ccn1	> 256

Tested on: NCI-H1648;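 also: cell viability assay measuring inhibition of NCI-H1648 cell growth, from the Sanger screening data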
Assay: cells
Assay type: functional, cell-based, Homo sapiens
Settings: Homo sapiens, NCI-H1648
Description: SANGER: Inhibition of human NCI-H1648 cell growth in a cell viability assay.

Structure (SMILES)	IC50 [nM]
OCCCNc1cc(-c2ccnc(Nc3cccc(Cl)c3)n2)ccn1	189

Tested on: NCI-H510A;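 also: growth inhibition of NCI-H510A cells, read out with a cell viability assay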
Assay: cells
Assay type: functional, cell-based, Homo sapiens
Settings: Homo sapiens, NCI-H510A
Description: SANGER: Inhibition of human NCI-H510A cell growth in a cell viability assay.

Structure (SMILES)	IC50 [nM]
OCCCNc1cc(-c2ccnc(Nc3cccc(Cl)c3)n2)ccn1	> 256

Tested on: SNU1;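 also: growth inhibition of human NCI-SNU-1 cells, measured with a cell viability assay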
Assay: cells
Assay type: functional, cell-based, Homo sapiens
Settings: Homo sapiens, SNU1
Description: SANGER: Inhibition of human NCI-SNU-1 cell growth in a cell viability assay.

Structure (SMILES)	IC50 [nM]
OCCCNc1cc(-c2ccnc(Nc3cccc(Cl)c3)n2)ccn1	> 256

Tested on: NKM-1;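 also: growth inhibition of NKM-1 cells, read out with a cell viability assay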
Assay: cells
Assay type: functional, cell-based, Homo sapiens
Settings: Homo sapiens, NKM-1
Description: SANGER: Inhibition of human NKM-1 cell growth in a cell viability assay.

Structure (SMILES)	IC50 [nM]
OCCCNc1cc(-c2ccnc(Nc3cccc(Cl)c3)n2)ccn1	79.1

Tested on: ONS-76;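 also: growth inhibition of human ONS-76 cells, read out with a cell viability assay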
Assay: cells
Assay type: functional, cell-based, Homo sapiens
Settings: Homo sapiens, ONS-76
Description: SANGER: Inhibition of human ONS-76 cell growth in a cell viability assay.

Structure (SMILES)	IC50 [nM]
OCCCNc1cc(-c2ccnc(Nc3cccc(Cl)c3)n2)ccn1	76.1

Tested on: RPMI-8866
Assay: cells
Assay type: functional, cell-based, Homo sapiens
Settings: Homo sapiens, RPMI-8866
Description: SANGER: Inhibition of human RPMI-8866 cell growth in a cell viability assay.

Structure (SMILES)	IC50 [nM]
OCCCNc1cc(-c2ccnc(Nc3cccc(Cl)c3)n2)ccn1	73.8

Tested on: SCC-15;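 also: growth inhibition of SCC-15 cells, read out with a cell viability assay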
Assay: cells
Assay type: functional, cell-based, Homo sapiens
Settings: Homo sapiens, SCC-15
Description: SANGER: Inhibition of human SCC-15 cell growth in a cell viability assay.

Structure (SMILES)	IC50 [nM]
OCCCNc1cc(-c2ccnc(Nc3cccc(Cl)c3)n2)ccn1	> 256

Tested on: SF-126;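 also: growth inhibition of human SF126 cells, read out with a cell viability assay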
Assay: cells
Assay type: functional, cell-based, Homo sapiens
Settings: Homo sapiens, SF-126
Description: SANGER: Inhibition of human SF126 cell growth in a cell viability assay.

Structure (SMILES)	IC50 [nM]
OCCCNc1cc(-c2ccnc(Nc3cccc(Cl)c3)n2)ccn1	134

Tested on: SK-UT-1;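 also: growth inhibition of SK-UT-1 cells, measured by a cell viability assay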
Assay: cells
Assay type: functional, cell-based, Homo sapiens
Settings: Homo sapiens, SK-UT-1
Description: SANGER: Inhibition of human SK-UT-1 cell growth in a cell viability assay.

Structure (SMILES)	IC50 [nM]
OCCCNc1cc(-c2ccnc(Nc3cccc(Cl)c3)n2)ccn1	157

Tested on: SNB-75;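 also: cell viability assay measuring growth inhibition of human SNB-75 cells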
Assay: cells
Assay type: functional, cell-based, Homo sapiens
Settings: Homo sapiens, SNB-75
Description: SANGER: Inhibition of human SNB75 cell growth in a cell viability assay.

Structure (SMILES)	IC50 [nM]
OCCCNc1cc(-c2ccnc(Nc3cccc(Cl)c3)n2)ccn1	27.8

Tested on: SW872;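 also: growth inhibition of SW872 cells, read out by a viability assay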
Assay: cells
Assay type: functional, cell-based, Homo sapiens
Settings: Homo sapiens, SW872
Description: SANGER: Inhibition of human SW872 cell growth in a cell viability assay.

Structure (SMILES)	IC50 [nM]
OCCCNc1cc(-c2ccnc(Nc3cccc(Cl)c3)n2)ccn1	26.6

Tested on: SW982;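 also: growth inhibition of SW982 cells, read out with a cell viability assay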
Assay: cells
Assay type: functional, cell-based, Homo sapiens
Settings: Homo sapiens, SW982
Description: SANGER: Inhibition of human SW982 cell growth in a cell viability assay.

Structure (SMILES)	IC50 [nM]
OCCCNc1cc(-c2ccnc(Nc3cccc(Cl)c3)n2)ccn1	25.4

Tested on: 697
Assay: cells
Assay type: functional, cell-based, Homo sapiens
Settings: Homo sapiens
Description: SANGER: Inhibition of human 697 cell growth in a cell viability assay.

Structure (SMILES)	IC50 [nM]
OCCCNc1cc(-c2ccnc(Nc3cccc(Cl)c3)n2)ccn1	19.7

Tested on: A253 cell line;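 also: growth inhibition of A253 cells, read out with a cell viability assay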
Assay: cells
Assay type: functional, cell-based, Homo sapiens
Settings: Homo sapiens, A253
Description: SANGER: Inhibition of human A253 cell growth in a cell viability assay.

Structure (SMILES)	IC50 [nM]
OCCCNc1cc(-c2ccnc(Nc3cccc(Cl)c3)n2)ccn1	64.9

Tested on: BB49-HNC;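 also: cell viability assay read-out, reported as inhibition of BB49-HNC cell growth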
Assay: cells
Assay type: functional, cell-based, Homo sapiens
Settings: Homo sapiens, BB49-HNC
Description: SANGER: Inhibition of human BB49-HNC cell growth in a cell viability assay.

Structure (SMILES)	IC50 [nM]
OCCCNc1cc(-c2ccnc(Nc3cccc(Cl)c3)n2)ccn1	96.3

Tested on: TE-12;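 also: growth inhibition of TE-12 cells, read out by a cell viability assay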
Assay: cells
Assay type: functional, cell-based, Homo sapiens
Settings: Homo sapiens, TE-12
Description: SANGER: Inhibition of human TE-12 cell growth in a cell viability assay.

Structure (SMILES)	IC50 [nM]
OCCCNc1cc(-c2ccnc(Nc3cccc(Cl)c3)n2)ccn1	48.5

Tested on: TE-8;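 also: growth inhibition of TE-8 cells, measured with a cell viability readout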
Assay: cells
Assay type: functional, cell-based, Homo sapiens
Settings: Homo sapiens, TE-8
Description: SANGER: Inhibition of human TE-8 cell growth in a cell viability assay.

Structure (SMILES)	IC50 [nM]
OCCCNc1cc(-c2ccnc(Nc3cccc(Cl)c3)n2)ccn1	23.8

Tested on: TGBC1TKB;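 also: growth inhibition of TGBC1TKB cells, read out by a cell viability assay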
Assay: cells
Assay type: functional, cell-based, Homo sapiens
Settings: Homo sapiens, TGBC1TKB
Description: SANGER: Inhibition of human TGBC1TKB cell growth in a cell viability assay.

Structure (SMILES)	IC50 [nM]
OCCCNc1cc(-c2ccnc(Nc3cccc(Cl)c3)n2)ccn1	23.6

Tested on: TGBC24TKB;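 also: growth inhibition of human TGBC24TKB cells, read out with a cell viability assay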
Assay: cells
Assay type: functional, cell-based, Homo sapiens
Settings: Homo sapiens, TGBC24TKB
Description: SANGER: Inhibition of human TGBC24TKB cell growth in a cell viability assay.

Structure (SMILES)	IC50 [nM]
OCCCNc1cc(-c2ccnc(Nc3cccc(Cl)c3)n2)ccn1	> 256

Tested on: U-266
Assay: cells
Assay type: functional, cell-based, Homo sapiens
Settings: Homo sapiens, U-266
Description: SANGER: Inhibition of human U-266 cell growth in a cell viability assay.

Structure (SMILES)	IC50 [nM]
OCCCNc1cc(-c2ccnc(Nc3cccc(Cl)c3)n2)ccn1	> 256

Tested on: VA-ES-BJ;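 also: growth inhibition of the VA-ES-BJ cell line, read out by a cell viability assay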
Assay: cells
Assay type: functional, cell-based, Homo sapiens
Settings: Homo sapiens, VA-ES-BJ
Description: SANGER: Inhibition of human VA-ES-BJ cell growth in a cell viability assay.

Structure (SMILES)	IC50 [nM]
OCCCNc1cc(-c2ccnc(Nc3cccc(Cl)c3)n2)ccn1	41.6

Tested on: no-11;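 also: growth inhibition of human NO-11 cells, read out with a cell viability assay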
Assay: cells
Assay type: functional, cell-based, Homo sapiens
Settings: Homo sapiens
Description: SANGER: Inhibition of human no-11 cell growth in a cell viability assay.

Structure (SMILES)	IC50 [nM]
OCCCNc1cc(-c2ccnc(Nc3cccc(Cl)c3)n2)ccn1	29.3

Tested on: CCRF-CEM;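 also: inhibition of CCRF-CEM cell growth, measured by a cell viability assay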
Assay: cells
Assay type: functional, cell-based, Homo sapiens
Settings: Homo sapiens, CCRF-CEM
Description: SANGER: Inhibition of human CCRF-CEM cell growth in a cell viability assay.

Structure (SMILES)	IC50 [nM]
OCCCNc1cc(-c2ccnc(Nc3cccc(Cl)c3)n2)ccn1	47

Tested on: COLO-668
Assay: cells
Assay type: functional, cell-based, Homo sapiens
Settings: Homo sapiens, COLO-668
Description: SANGER: Inhibition of human COLO-668 cell growth in a cell viability assay.

Structure (SMILES)	IC50 [nM]
OCCCNc1cc(-c2ccnc(Nc3cccc(Cl)c3)n2)ccn1	236

Tested on: COLO-684
Assay: cells
Assay type: functional, cell-based, Homo sapiens
Settings: Homo sapiens, COLO-684
Description: SANGER: Inhibition of human COLO-684 cell growth in a cell viability assay.

Structure (SMILES)	IC50 [nM]
OCCCNc1cc(-c2ccnc(Nc3cccc(Cl)c3)n2)ccn1	94.9
